# Test results from US10383906B2, “Method for treating skin diseases with mangosteen rind extract” (XANTHO BIOTECHNOLOGY CO., LTD, priority 2015, dated 2019).
# Test system: TNCB-induced atopic dermatitis in mice ears
# Test: TNCB-induced atopic dermatitis in mice: ear thickness, ear weight, ear appearance, histopathology
# Format: in vivo, BALB/c mice
# Conditions: for Pathological slice average inflammation degree (average severity of the pathological changes): mice ears, HE staining, after three weeks of daily test substance, scale Grade 1 minimal to Grade 5 extremely severe
# Description: The animals used in the experiments were 8-week-old BALB/c mice (purchased from LESCO Biotech), the body weight were 25 to 28 g and were quarantined by veterinarians for one week before entering the breeding room. The animals were divided into 9 groups, 3 in each group, a total of 27 mices. The temperature of the breeding room was set at 21±2° C., the humidity was set at 30 to 70%, and the environment was set for 12/12 hour light-dark cycle with unlimited supply of food and water.
# In the animal experiments, 2-chloro-1,3,5-trinitrobezene (TNCB) was used to induce atopic dermatitis in mice and acetone was used as the solvent to prepare 1% of TNCB which was applied to mice ears (once every 2 days, the volume was 4 ml/kg) one week prior to testings. […] In addition, for those groups that were simultaneously provided with test ointments and test oral substances, the oral dose was 60 mg/kg and the volume was 10 ml/kg. When TNCB and the test substance were given on the same day, in order to reduce the effect of interactions between each other, TNCB and test substance were given at least 1 hour apart. The mangosteen paste of 0.5%, 1%, 2%, 3%, 5% respectively contained 20 mg/kg, 40 mg/kg, 80 mg/kg, 120 mg/kg and 200 mg/kg of extract of mangosteen rind.
# Changes in body weight and ear thickness of the mice were monitored twice weekly. Blood of all experimental animals were collected before TNCB induction, after the induction and before the test substance was given and when being sacrificed. After the blood was centrifuged at 3000 rpm for 30 minutes at 4° C., serum samples were obtained and stored.
# All animals were sacrificed at the end of the third week after the test substance was given. Mice ears were removed, photographed and stored in 10% of formalin solution for histopathological observation. HE staining was used for the pathological observation (conducted by the National Laboratory Animal Center).
# Data are expressed as means±standard deviation […] and Student's t-test was used to compare the differences among treatment groups. Asterisks indicate significant differences, *p<0.05; **p<0.01; ***p<0.001.
# [1] = inner rind versus outer rind extract experiment (4%)
smiles,measurement,setting,value
"CC(=O)OCC(=O)[C@@]1(O)CC[C@H]2[C@@H]3CCC4=CC(=O)CC[C@]4(C)[C@H]3[C@@H](O)C[C@@]21C [1% Hydrocortisone Acetate, hydrocortisone acetate]","Inhibition rate, ear thickness","degree of swelling of mice ears, compared with the model group, mangosteen paste dose series",52.7%
same,Ear appearance after being sacrificed,ears removed at end of experiment (FIG. 4),intact ear contour
same,"Inhibition rate, ear weight","ears weighed after sacrifice, compared with the model group, mangosteen paste dose series",82.4%
same,"Inhibition rate (%), ear thickness",[1],50.75%
same,"Inhibition rate (%), ear weight",[1],68.91%
same,Pathological slice average inflammation degree (average severity of the pathological changes),,3 ± 0 Grade
same,Pathological slice average inflammation degree (average severity of the pathological changes),listed as 1% hydrocortisone acetate,3 Grade
